In publication PMC4006925, “Squalene Synthase As a Target for Chagas Disease Therapeutics” (PLoS Pathogens, 2014):

Tests used:
[1] = test system: Vero cells; test: Vero (host) cell proliferation, alamarBlue; format: cell-based; conditions: Chlorocebus sabaeus, Vero, read-out: IC50 Vero cells (host cell growth)
Experimental: Vero cells (1.7×10^4 cells/well) were seeded in 96 well plates (black, clear bottom from Greiner Bio-One Cat#655090) in 100 µL RPMI media (Sigma Cat# R-4130) with 10% FBS. Plates were tested as described by Recher et al.

[2] = test system: T. cruzi epimastigotes; test: Sterol composition of T. cruzi epimastigotes, GC-MS; format: cell-based, Trypanosoma cruzi; conditions: 4 µM compound
Experimental: . Cells from cultures (96 h incubation) were washed with Buffer A with glucose (116 mM NaCl, 5.4 mM KCl, 0.8 mM MgSO4, 5.5 mM D-glucose, and 50 mM HEPES at pH 7.0) then pelleted and chloroform/methanol (2∶1 v/v) added (∼30 mL of solvent per gram of wet cells) followed by vigorous stirring and overnight incubation at 4°C. The extract was then filtered using Whatman #2 paper to eliminate insoluble material, and the filtrate (a single phase) dried under nitrogen. The extract was then re-extracted using chloroform/methanol 9/1 v/v, dried under nitrogen, dissolved in 1 mL of pure chloroform and re-dried under nitrogen gas. The extracted lipids were saponified with 5 mL of ethanolic-potassium hydroxide (5 g KOH, 7 mL water, 14 mL ethanol) for 1 hour at 80°C. After cooling, 2.5 mL of water and 1.5 mL hexane were added and the phases allowed to separate. […] Samples were analyzed on a 30 m DB5 column with 0.32 mm I.D. and 0.25 µm film thickness (Agilent Inc, Palo Alto, CA, USA) with an injection port temperature of 300°C, the interface was set to 300°C, the ion source adjusted to 230°C, MS Quadrupole 150°C. […] The spectra of all chromatogram peaks were evaluated by using the HP Chemstation (Agilent, Palo Alto, CA, USA) program. Identifications and quantifications were performed using mass spectra obtained from authentic standards and with NIST08 and W8N08 libraries (John Wiley & Sons, Inc., USA).

[3] = test system: T. cruzi epimastigotes; test: UQ9 biosynthesis in epimastigotes, LC-MS; format: cell-based, Trypanosoma cruzi
Experimental: For ubiquinone extraction, epimastigotes (1 g wet weight) were washed twice with buffer A with glucose (116 mM NaCl, 5.4 mM KCl, 0.8 mM MgSO4, 5.5 mM D-glucose, and 50 mM HEPES at pH 7.0). To break the cells, the pellets were frozen in a dry ice-100% ethanol bath (for 7 min) and thawed at 37°C (for 3 min) for a total of 5 times. One volume of water and three volumes of 1-propanol were added to the pellet. The samples were vortexed for 30 sec at room temperature and allowed to stand for one minute. Two volumes of n-hexane were added, the mixture vortexed for 30 sec at room temperature, then centrifuged at 12,000× g for 5 min. The upper phase, containing ubiquinone, was collected into a glass tube, and dried under nitrogen gas, then analyzed using LC-MS.
LC/MS was performed using an Agilent LC/MSD Trap XCT Plus system (Agilent Technologies, Santa Clara, CA) with an 1100 series HPLC system including a degasser, an auto-sampler, a binary pump, and a multiple-wavelength detector. The LC separation used a Phenomenex Gemini 3u C18 110A column (2 mm×100 mm) (Torrence, CA) with mobile phase A (0.1% formic acid in water) and mobile phase B (0.1% formic acid in acetonitrile). The flow-rate was 0.25 mL/min. The linear gradient was as follows: 0–1 min, 100% A; 7–50 min, 0% A; 51–56 min, 100% A. The auto-sampler was set at 5°C and the injection volume was 15 µL. UV signals were recorded at 275 nm. […]

[4] = test system: T. cruzi; test: Rescue from T. cruzi cell growth inhibition by farnesol or geranylgeraniol; format: cell-based, Trypanosoma cruzi

SMILES: CCCCCCCCCC[n+]1ccn(CC(P(=O)([O-])O)P(=O)(O)O)c1 (stereo not drawn) [BPH-1218]
- IC50 [1]: ~1 mM
- endogenous ergosterol and the three major ergosterol related sterols, % of total sterols ([2]; without compound 36%): 15%
- content of exogeneously-acquired cholesterol, % of total sterols ([2]; without compound 51%): 71%
- decrease in UQ9 biosynthesis [3]: ~40%
- rescue afforded by farnesol [4]: no “rescue”
- rescue by geranylgeraniol ([4]; geranylgeraniol at 40 µM): ~20%
